Earlier results as cited in patent US20220000907A1, “MOUTHWASH/GARGLE, NASAL/ORAL/NASAL SPRAY COVID AND BACTERIOCIDE ARRANGEMENT” (priority 2020, published 2022).

Assays:
[1] = test system: microbes; conditions: 1.0% PVPI solution gives 0.1% available iodine
[2] = test system: all seven classes of viral organisms

Question: Which “most effective antimicrobial concentration of PVPI (peak of bell curve of microbial killing)” value [1] does the source give for polyvinylpyrrolidone iodine [PVPI] here?
Answer: 1%

Question: And the “effectiveness against all classes of viruses (I-VII)” value ([2]; PVPI in solution)?
Answer: effective

Question: And the “inactivation of all classes of viruses” value ([2]; effective concentration of 0.1% available iodine)?
Answer: inactivated
